Tests used:
[1] = test system: PPC-1 prostate cancer cells; assay: Alamar Blue proliferation assay, PPC-1; assay type: cell-based, human; details: PPC-1 cells, 30 nM, normalized to negative control miRNA (100% proliferation)
Text: (§1) The inventors assessed the therapeutic effect of hsa-miR-126 for prostate cancer by using 4 individual human prostate cancer cell lines. To measure cellular proliferation of prostate cancer cells, the following prostate cancer cell lines were used: PPC-1, derived from a bone metastasis; Du145, derived from a brain metastasis; RWPE2, derived from prostate cells immortalized by human papillomavirus 18 and transformed by the K-RAS oncogene; and LNCaP, derived from a lymph node metastasis (Stone et al., 1978; Horoszewicz et al., 1980; Brothman et al., 1991; Pretlow et al., 1993; Bello et al., 1997). PPC-1 and Du145 cells lack expression of the prostate-specific antigen (PSA) and are independent of androgen receptor (AR) signaling. In contrast, RWPE2 and LNCaP cells test positive for PSA and AR. Cells were transfected with synthetic hsa-miR-126 (Pre-miR™-hsa-miR-126, Ambion cat. no. AM 17100) or negative control miRNA (NC; Pre-miR™ microRNA Precursor Molecule-Negative Control #2; Ambion cat. no. AM17111) in a 96-well format using a lipid-based transfection reagent. […] Proliferation was assessed 4-7 days post-transfection using Alamar Blue™ (Invitrogen) following the manufacturer's instructions. […] Fluorescent light units (FLU) were measured after 3 hours, normalized to the control, and plotted as percent change in proliferation. […]

[2] = test system: Du145 prostate cancer cells; assay: Alamar Blue proliferation assay, Du145; assay type: cell-based, human; details: 30 nM, normalized to negative control miRNA (100% proliferation)
Text: as §1

[3] = test system: LNCaP prostate cancer cells; assay: Alamar Blue proliferation assay, LNCaP; assay type: cell-based, human; details: 30 nM, normalized to negative control miRNA (100% proliferation)
Text: as §1

[4] = test system: PPC-1 prostate cancer cells; assay: Long-term growth curve with repeated electroporation, PPC-1; assay type: cell-based, human
Text: (§2) To evaluate the therapeutic activity of hsa-miR-126 over an extended period of time, we conducted growth curve experiments in the presence of miRNA for up to 21 days. Since in vitro transfections of naked interfering RNAs, such as synthetic miRNA, are transient by nature and compromised by the dilution of the oligonucleotide during ongoing cell divisions, we administered miRNA at multiple time points (Bartlett and Davis, 2006; Bartlett and Davis, 2007). To accommodate miRNA delivery into a large quantity of cells, we employed the electroporation method to delivery hsa-miR-126 or negative control miRNA into PPC-1, PC3 and Du145 human prostate cancer cells. Briefly, 1×10^6 PPC-1 or PC3 cells, and 0.5×10^6 Du145 cells were electroporated with 1.6 μM hsa-miR-126 or negative control using the BioRad Gene Pulser Xcell™ instrument (BioRad Laboratories Inc., Hercules, Calif., USA), seeded and propagated in regular growth medium. Experiments with PC3 and Du145 cells were carried out in triplicates. When the control cells reached confluence (days 4 and 11 for PPC-1; days 7 and 14 for PC3 and Du145), cells were harvested, counted and electroporated again with the respective miRNAs. […] The population doubling was calculated from these electroporation events using the formula PD=ln(Nf/N0)/ln2, and cell counts were extrapolated and plotted on a linear scale (FIGS. 10-12). […]

[5] = test system: PC3 prostate cancer cells; assay: Long-term growth curve with repeated electroporation, PC3; assay type: cell-based, human
Text: as §2

[6] = test system: human leukemia cells (Jurkat) and normal human T cells; details: cited from earlier work
[7] = test system: lung cancer (A549, HTB-57) or cervical cancer (HeLa) cells; details: A549, HTB-57, HeLa; miRNA given before the compound; cited from earlier work

In the case of “hsa-miR-126 (UCGUACCGUGAGUAAUAAUGC; synthetic pre-miR form, further chemistry not given here) [Synthetic hsa-miR-126 (Pre-miR™-hsa-miR-126, Ambion cat. no. AM17100)]”, the “% proliferation” value [1] is reported as 71.89%, the “% proliferation” value [2] is reported as 63.41% and the “% proliferation” value [3] is reported as 80.59%. For the same substance, the “inhibition of cell growth” value ([4]; PPC-1, day 18, 1.6 μM repeated electroporation, relative to control cells (100%)) was 91.3%, the remaining cells ([4]; PPC-1, day 18, relative to control cells (100%)) was 8.7% and the “inhibition of cell growth” value ([5]; PC3, day 21, 1.6 μM repeated electroporation, relative to control cells (100%)) was 90.7%. The remaining cells ([5]; PC3, day 21, relative to control cells (100%)) was 9.3%, the effect on proliferation [6] was “increasing the proliferation” and the “effect on cell death induced by therapeutic compound (e.g., etoposide)” value [7] was “increased the capacity of the therapeutic compound to induce death”.

Reference: patent US20090131354A1, “miR-126 REGULATED GENES AND PATHWAYS AS TARGETS FOR THERAPEUTIC INTERVENTION” (priority 2007, published 2009)
